From patent US9102637B2, “Bicyclic thiazole compounds” (CARNA BIOSCIENCES INC., priority 2013, dated 2015)
Blank lines part the entries; values can stand above or below the molecule they belong to.

Assays:
[1] = system: human colon cancer cell line HCT-116; test: In vitro cell proliferation assay; assay type: cell-based; conditions: HCT-116 cell number, 72 hours of treatment
Experimental: In Vitro Cell Proliferation Assay
The human colon cancer cell line HCT-116 was seeded at 600 cells/well in 96 well-plate (ThermoFisher) using RPMI medium containing 2 mM L-glutamine (Invitrogen) supplemented with 10% FCS (Invitrogen) and 1% penicillin/streptomycin (Sigma) and maintained at 37° C., 5% CO2 and 100% humidity. The following day, old medium was withdrawn and the fresh medium was added. Initial numbers of cells were counted before adding compounds. Then cells were treated in duplicates with compounds (a half-logarithmic serial dilution from 10 μM). Eight untreated control wells were incubated in each plate. After 72 hours of treatment, cells were fixed with 2% paraformaldehyde, and the nucleus were stained with Hoechst 33258 (Invitrogen). The numbers of cells were counted with ArrayScan™ VTI (ThermoFisher Scientific).

[2] = target: human TNIK (N-terminal segment, TNIK_N, residues 1-314) (Homo sapiens (Human), UniProt Q9UKE5); test: TNIK kinase assay (mobility shift); assay type: biochemical; conditions: TNIK_N kinase activity, 25 μM ATP, 1 h at room temperature
From the text: Preparation of Recombinant Human TNIK (N-Terminal Segment):
A cDNA encoding the N-terminal segment (TNIK_N, residues 1-314) containing the kinase domain of human TNIK (NM_015028.1) was amplified from cDNA mixture synthesized from human tissue (Biochain) by PCR using the following primers.
The cDNA was subcloned into baculovirus transfer vector pFastBac_GSTb that includes protease cleavage site and glutathione S-transferase purification tag (GST-tag). The plasmid was purified and the insertion of the pFastBac_GSTb-TNIK_N was confirmed by DNA sequencing. Then E. coli DH10Bac competent cells were transformed with the plasmid to prepare the recombinant bacmid according to the instructions for the Bac-to-Bac™ baculovirus expression systems (Invitrogen). The Sf9 cells were transfected with the recombinant bacmid containing pFastBac_GSTb-TNIK_N using Cellfectin Reagent (Invitrogen) in SF-9001I serum free media (Invitrogen). The viral supernatant was collected from the medium 72 h after transfection. The virus was amplified three times by infecting actively growing Sf9 or Sf21 cells in Grace's insect media (Invitrogen) supplemented with 10% FCS and an antibiotic-antimycotic reagent (Invitrogen) for 72 h at 27° C. in T-flask or roller bottles. The titer of amplified TNIK_N virus was estimated at 2.36×10^8 pfu/ml by using BacPAK™ Baculovirus Rapid Titer kit (Clontech).
Log-phase Sf21 cells (2×10^6 cells/ml) in the Grace's insect media were infected with the recombinant baculovirus at MOI of 3.0 and incubated in roller bottles (250 ml media per bottle) for 72 h at 27° C., after which, the cells were collected by centrifugation, and the cell pellet washed with cold PBS and kept at −80° C. until purification. The following purification procedures were carried out at 4° C. The frozen cells were thawed on ice and lysed in lysis buffer (50 mM Tris-HCl, pH 7.5, 150 mM NaCl, 1% Nonidet P-40, 5 mM DTT, 0.5 mM EDTA, 0.5 mM EGTA) supplemented with 1 mM phenylmethansulfonylfluoride, 2 μg/ml leupeptin, 2 μg/ml aprotinin, 1 mM NaF, 100 μM sodium orthovanadate, and 1 μM cantharidin by sonication. The suspended lysate was cleared by centrifugation at 9000g for 20 min and the supernatant was incubated for 1 h with glutathione Sepharose beads (GE Healthcare). The beads were suspended in buffer-H (50 mM Tris-HCl, pH 7.5, 1 M NaCl, 1 mM DTT, 0.5 mM EDTA, 0.5 mM EGTA and 0.05% Brij35) and washed with buffer-H followed by buffer-L (50 mM Tris-HCl, pH 7.5, 150 mM NaCl, 1 mM DTT, 0.5 mM EDTA, 0.5 mM EGTA, 0.05% Brij35) in an Econo-pack column (BIO-RAD). The bound TNIK_N was eluted with elution buffer (50 mM Tris-HCl, pH 8.0, 150 mM NaCl, 1 mM DTT, 10% glycerol, 0.5 mM EDTA, 0.5 mM EGTA and 5 mM reduced glutathione). The eluted fractions were collected and determined the protein concentration by Bradford reagent (BIO-RAD). The TNIKN fractions were pooled and desalted using 10DG column (BIORAD) equilibrated with the storage buffer (50 mM Tris-HCl, pH 7.5, 150 mM NaCl, 1 mM DTT, 10% glycerol, 0.05% Brij35). The purified TNIKN was characterized by electrophoresis using 4-20% polyacrylamide gels and matrix-assisted laser desorption/ionization reflection time-of-flight (MALDI-TOF) mass spectrometry on a Voyager-DE RP MALDI/TOF (Applied Biosystems). TNIK_N was confirmed by the molecular weight and. MASCOT Peptide Mass Fingerprint.
The kinase assays were conducted in a 20 μl volume using 384-well plates (Greiner). The reaction mixture consists of compound or vehicle (1% DMSO), 0.08 ng/μl TNIK_N, 1 μM FITC-labeled substrate peptides, including E-aminocaproic acid and 7 amino acids (described as SEQ ID NO.3 in “Kinase assay of TEST EXAMPLE 1” of WO 2010/064111(P.31)), 20 mM Hepes, pH 7.5, 0.01% Triton X-100, 5 mM MgCl2, 25 μM ATP and 2 mM DTT. As blank, TNIK N was excluded from the reaction mixture of vehicle (1% DMSO). […]

Chain of human TNIK (N-terminal segment, TNIK_N, residues 1-314) (Q9UKE5 1-314): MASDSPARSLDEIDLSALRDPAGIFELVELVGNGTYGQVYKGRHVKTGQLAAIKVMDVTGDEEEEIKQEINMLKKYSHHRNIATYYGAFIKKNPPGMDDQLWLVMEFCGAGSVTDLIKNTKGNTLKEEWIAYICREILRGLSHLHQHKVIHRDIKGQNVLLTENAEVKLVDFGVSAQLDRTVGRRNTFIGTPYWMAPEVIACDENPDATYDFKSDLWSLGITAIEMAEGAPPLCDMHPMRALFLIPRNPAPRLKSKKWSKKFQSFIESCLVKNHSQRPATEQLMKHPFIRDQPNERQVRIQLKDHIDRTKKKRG

IC50 [2]: 26.5 nM
SMILES: NC(=O)c1nc(Nc2ccnc3ccccc23)sc1NC(=O)c1ccc(Cn2ccnc2)cc1 [Example 255, 5-{4-[(1H-imidazol-1-yl)methyl]benzamido}-2-(quinolin-4-ylamino)thiazole-4-carboxamide]

IC50 [2]: 4.8 nM
SMILES: NC(=O)c1nc(Nc2cccc3ncccc23)sc1NC(=O)c1ccc(Cn2ccnc2)cc1 [Example 254, 5-{4-[(1H-imidazol-1-yl)methyl]benzamido}-2-(quinolin-5-ylamino)thiazole-4-carboxamide]

IC50 [2]: 5.3 nM
SMILES: NC(=O)c1nc(Nc2ccc3ccccc3c2)sc1NC(=O)c1ccc(Cn2cc(CO)nn2)cc1 [Example 260, 5-{4-[(4-(hydroxymethyl)-1H-1,2,3-triazol-1-yl)methyl]benzamido}-2-(naphthalen-2-ylamino) thiazole-4-carboxamide]

IC50 [2]: 14.8 nM
SMILES: NC(=O)c1nc(Nc2ccc3ccccc3c2)sc1NC(=O)c1ccc(Cn2cnc([N+](=O)[O-])n2)cc1 [Example 243, 2-(naphthalen-2-ylamino)-5-{4-[(3-nitro-1H-1,2,4-triazol-1-yl)methyl]benzamido}thiazole-4-carbox-amide]

IC50 [2]: 2.3 nM
SMILES: Cc1nccn1Cc1ccc(C(=O)Nc2sc(Nc3ccc4ccccc4c3)nc2C(N)=O)cc1 [Example 237, 5-{4-[(2-methyl-1H-imidazol-1-yl)methyl]benz-amido}-2-(naphthalen-2-ylamino)thiazole-4-carbox-amide]

IC50 [2]: 3 nM
SMILES: NC(=O)c1nc(Nc2ccc3ccccc3c2)sc1NC(=O)c1ccc(CN2CC[C@H](N)C2)cc1 [Example 220, (S)-5-{4-[(3-aminopyrrolidin-1-yl)methyl]benz-amido}-2-(naphthalen-2-ylamino)thiazole-4-carbox-amide]

IC50 [2]: 3.1 nM
SMILES: Cc1cn(Cc2ccc(C(=O)Nc3sc(Nc4ccc5ccccc5c4)nc3C(N)=O)cc2)cn1 [Example 238, 5-{4-[(4-methyl-1H-imidazol-1-yl)methyl]benz-amido}-2-(naphthalen-2-ylamino)thiazole-4-carbox-amide]

IC50 [2]: 4 nM
SMILES: NC(=O)c1nc(Nc2ccc3ccccc3c2)sc1NC(=O)C#CCCO [Example 225, 5-(5-hydroxypent-2-ynamido)-2-(naphthalen-2-ylamino)thiazole-4-carboxamide]

The remaining lines, values behind:

SMILES: NC(=O)c1nc(Nc2ccc3ccccc3c2)sc1NC(=O)c1ccc(CN2CCNCC2)cc1 [Example 19, 2-(naphthalen-2-ylamino)-5-[4-(piperazin-1-ylmethyl)benzamido]thiazole-4-carboxamide]
IC50 [1]: 100 to 1000 nM

SMILES: CN1CCN(CCCCCC(=O)Nc2sc(Nc3ccc4ccccc4c3)nc2C(N)=O)CC1 [Example 91, 5-[6-(4-methylpiperazin-1-yl)hexanamido]-2-(naphthalen-2-ylamino)thiazole-4-carboxamide]
IC50 [1]: 100 to 1000 nM

SMILES: NC(=O)c1nc(Nc2ccc3ccccc3c2)sc1NC(=O)c1ccc(F)cc1 [Example 8, 5-(4-fluorobenzamido)-2-(naphthalen-2-ylamino) thiazole-4-carboxamide]
IC50 [1]: 100 to 1000 nM

SMILES: CN1CCN(Cc2cc(C(=O)Nc3sc(Nc4ccc5ccccc5c4)nc3C(N)=O)cs2)CC1 [Example 60, 5-{5-[(4-methylpiperazin-1-yl)methyl]thiophene-3-carboxamido}-2-(naphthalen-2-ylamino) thiazole-4-carboxamide]
IC50 [1]: < 100 nM

SMILES: NC(=O)c1nc(Nc2ccc3ccccc3c2)sc1NC(=O)c1ccc(NC(=O)CO)cc1 [Example 21, 5-[4-(2-hydroxyacetamido)benzamido]-2-(naphthalen-2-ylamino)thiazole-4-carboxamide]
IC50 [1]: < 100 nM

SMILES: Cc1ccc(C(=O)Nc2sc(Nc3ccc4ccccc4c3)nc2C(N)=O)s1 [Example 34, 5-(5-methylthiophene-2-carboxamido)-2-(naph-thalen-2-ylamino)thiazole-4-carboxamide]
IC50 [1]: < 100 nM

SMILES: CN(C)Cc1ccc(C(=O)Nc2sc(Nc3ccc4ccccc4c3)nc2C(N)=O)cc1 [Example 20, 5-{4-[(dimethylamino)methyl]benzamido}-2-(naphthalen-2-ylamino)thiazole-4-carboxamide]
IC50 [1]: < 100 nM

SMILES: NC(=O)c1nc(Nc2ccc3ccccc3c2)sc1NC(=O)c1ccc(NCCOCCO)cc1 [Example 78, 5-(4-{[2-(2-hydroxyethoxy)ethyl]amino}benz-amido)-2-(naphthalen-2-ylamino)thiazole-4-carbox-amide]
IC50 [1]: < 100 nM

SMILES: COc1ccc2cc(Nc3nc(C(N)=O)c(NC(=O)c4ccsc4)s3)ccc2c1 [Example 73, 2-[(6-methoxynaphthalen-2-yl)amino]-5-(thio-phene-3-carboxamido)thiazole-4-carboxamide]
IC50 [1]: 1000 to 10000 nM

SMILES: NC(=O)c1nc(Nc2cccc3ncccc23)sc1NC(=O)c1csc(CN2CCOCC2)c1 [Example 49, 5-[5-(morpholinomethyl)thiophene-3-carbox-amido]-2-(quinolin-5-ylamino)thiazole-4-carboxamide]
IC50 [1]: 1000 to 10000 nM

SMILES: NC(=O)c1nc(Nc2ccc3ccccc3c2)sc1NC(=O)c1ccc(CN2CCCCC2CO)cc1 (stereo not shown) [Example 189, 5-(4-{[2-(hydroxymethyl)piperidin-1-yl]methyl}benzamido)-2-(naphthalen-2-ylamino)thiazole-4-carboxamide]
IC50 [2]: 6.8 nM

SMILES: NC(=O)c1nc(Nc2ccc3ccccc3c2)sc1NC(=O)c1ccc(CCO)cc1 [Example 116, 5-[4-(2-hydroxyethyl)benzamido]-2-(naphthalen-2-ylamino)thiazole-4-carboxamide]
IC50 [2]: 5.8 nM

SMILES: CC(C)=CC(=O)Nc1sc(Nc2ccc3ccc(F)cc3c2)nc1C(N)=O [Example 128, 2-[(7-fluoronaphthalen-2-yl)amino]-5-(3-methyl-but-2-enamido)thiazole-4-carboxamide]
IC50 [2]: 7.2 nM

SMILES: COc1ccc2cc(Nc3nc(C(N)=O)c(NC(=O)c4ccc(NCCO)cc4)s3)ccc2c1 [Example 113, 5-{4-[(2-hydroxyethyl)amino]benzamido}-2-[(6-methoxynaphthalen-2-yl)amino]thiazole-4-carbox-amide]
IC50 [2]: 14.8 nM

SMILES: NC(=O)c1nc(Nc2ccc3ccccc3c2)sc1NC(=O)c1ccc(CN2CCC(O)CC2)cc1 [Example 173, 5-{4-[(4-hydroxypiperidin-1-yl)methyl]benzamido}-2-(naphthalen-2-ylamino)thiazole-4-carbox-amide]
IC50 [2]: 3.4 nM

SMILES: COc1ccc2cc(Nc3nc(C(N)=O)c(NC(=O)C=C(C)C)s3)ccc2c1 [Example 137, 2-[(6-methoxynaphthalen-2-yl)amino]-5-(3-meth-ylbut-2-enamido)thiazole-4-carboxamide]
IC50 [2]: 15.2 nM

SMILES: NC(=O)c1nc(Nc2ccc3ccccc3c2)sc1NC(=O)c1ccc(CN2CC(O)C2)cc1 [Example 201, 5-{4-[(3-hydroxyazetidin-1-yl)methyl]benzamido}-2-(naphthalen-2-ylamino)thiazole-4-carbox-amide]
IC50 [2]: 5.6 nM
